The source of these data is patent US20240276935A1, “METHODS FOR ENHANCING DISEASE RESISTANCE AND INCREASING BIOMASS YIELD AND SECONDARY METABOLITE QUANTITIES IN CANNABIS SATIVA UTILIZING PLANT DEFENSE-RESPONSE ELICITORS” (priority 2023, published 2024).

In assay [1] the test system is C. sativa. On the set-up: species or system Cannabis sativa. The settings on record: in vivo.
Assay [2] relates to medical cannabis variety. The settings on record: 0.1 mM, foliar application; cited from earlier work.
Assay [3] has as its system Fusarium sp. Nature of the assay: Protective effect on rooting clones of C. sativa against Fusarium sp. (Table 1). Format: in vivo. The settings on record: for Total Alive: cultivar III clones alive; for Total Alive / Total Dead: total of 30 replicate clones per elicitor treatment; for Total Dead: cultivar III clones dead; for Mean Survival: rooting clones of cultivar III, sprayed daily ~2 ml solution/clone, inoculated with Fusarium culture (~10^3 Cfu/ml), survival one week later, three repeats of 10 clones. How it is done: Cultivar III was shown from the data in FIG. 1B to be most susceptible to mold pathogens. Thus, 10 clones of cultivar III were selected to be treated with formulations containing bacterial/fungal PAMP elicitor compounds (as listed in Table 1) formulated in water. Treatments were performed by spraying the clones daily with ˜2 ml solution/clone, starting one week after cutting. Plants were inoculated two weeks after cutting (one week after treatment application) by applying 10 ml Fusarium culture (˜10^3 Cfu/ml) to the water tray. After one hour, clones were removed and placed in clean water trays. Survival was assessed one week later upon reaching the vegetative growth phase. The experiment was repeated three times for a total of 30 replicate clones per elicitor treatment.

The test system of assay [4] is cannabis sativa. The settings on record: cited from earlier work.

SMILES strings stand for the structures.

On to `COc1cc(/C=C/CO)ccc1O` [Coniferyl Alcohol], for which, in assay [1], the “Yield (g/plant), Cultivar I” value stood at 13.6 ± 2.9 g/plant; the “Yield (g/plant), Cultivar II” value was found to be 12.8 ± 1.3 g/plant; the “Yield (g/plant), Cultivar III” value worked out at 12.4 ± 1.8 g/plant.
The like results for `O=C(O)[C@H]1OC(O)[C@H](O)[C@@H](O)[C@H]1O` (stereo partly shown) [D Galactoronic Acid] were, in that order, 13.5 ± 1.8 g/plant, 11.5 ± 2.1 g/plant and 10.2 ± 1.8 g/plant.
In the case of `CC/C=C\CC1C(=O)CCC1CC(=O)OC` (stereo not shown) [MeJA, methyl jasmonate], the “increase of CBDA content in inflorescences” value in assay [2] is 15.6%.
Take `CC(=O)N[C@H]1C(O)O[C@H](CO)[C@@H](O)[C@@H]1O` (stereo partly drawn) [N-Acetyl-D-Glucosamine (4), N-Acetyl-D-Glucosamine]: in assay [1], the “Yield (g/plant), Cultivar I” value was found to be 11.6 ± 1.7 g/plant; the “Yield (g/plant), Cultivar II” value was found to be 10.7 ± 1.9 g/plant; the “Yield (g/plant), Cultivar III” value is on record as 9.2 ± 0.7 g/plant. Moreover, in assay [3], the “Total Alive” value came out at 21, the “Total Dead” value is 9 and the “Mean Survival” value turned out to be 70.0%.
As for `CC(=O)N[C@H]1C(O)O[C@H](CO)[C@@H](O)[C@@H]1O[C@H](C)C(=O)O` (stereo partly shown) [N-Acetylmuramic Acid], in assay [1], the “Yield (g/plant), Cultivar I” value was found to be 13.4 ± 2.1 g/plant; the “Yield (g/plant), Cultivar II” value was 11.5 ± 2^ g/plant; the “Yield (g/plant), Cultivar III” value came to 11.5 ± 1.6 g/plant. Further, in assay [3], the “Total Alive” value is 21, the “Total Dead” value is given as 9 and the “Mean Survival” value worked out at 70.0%.
On to `OC/C=C/c1ccc(O)cc1` [Paracoumaryl Alcohol], for which, in assay [1], the “Yield (g/plant), Cultivar I” value is 14.7 ± 2.5 g/plant; the “Yield (g/plant), Cultivar II” value came to 9.2 ± 1 g/plant; the “Yield (g/plant), Cultivar III” value stood at 11.9 ± 2.9 g/plant.
For the compound `O=C(O)c1ccccc1O` [SA, salicylic acid], in assay [4] (1 M of SA (highest)), the A9-THC in extract is 22.84% and the CBD in extract was 37.81%. Further, the “TPC, TFC, TCC, Chl a, Chl b, and antioxidant capacity” value in assay [4] (1 M treatment, lowest in control plants) was “highest”.
Regarding `COc1cc(/C=C/CO)cc(OC)c1O` [Sinapyl Alcohol (Syringil monomer), Sinapyl Alcohol], in assay [1], the “Yield (g/plant), Cultivar I” value was 16.4 ± 1.2 g/plant; the “Yield (g/plant), Cultivar II” value turned out to be 12.9 ± 2.1 g/plant; the “Yield (g/plant), Cultivar III” value came to 13.5 ± 2.6 g/plant.
